The target in one assay is T1, JAK3 (Homo sapiens, UniProt P52333).
T1 sequence (P52333 1-1124): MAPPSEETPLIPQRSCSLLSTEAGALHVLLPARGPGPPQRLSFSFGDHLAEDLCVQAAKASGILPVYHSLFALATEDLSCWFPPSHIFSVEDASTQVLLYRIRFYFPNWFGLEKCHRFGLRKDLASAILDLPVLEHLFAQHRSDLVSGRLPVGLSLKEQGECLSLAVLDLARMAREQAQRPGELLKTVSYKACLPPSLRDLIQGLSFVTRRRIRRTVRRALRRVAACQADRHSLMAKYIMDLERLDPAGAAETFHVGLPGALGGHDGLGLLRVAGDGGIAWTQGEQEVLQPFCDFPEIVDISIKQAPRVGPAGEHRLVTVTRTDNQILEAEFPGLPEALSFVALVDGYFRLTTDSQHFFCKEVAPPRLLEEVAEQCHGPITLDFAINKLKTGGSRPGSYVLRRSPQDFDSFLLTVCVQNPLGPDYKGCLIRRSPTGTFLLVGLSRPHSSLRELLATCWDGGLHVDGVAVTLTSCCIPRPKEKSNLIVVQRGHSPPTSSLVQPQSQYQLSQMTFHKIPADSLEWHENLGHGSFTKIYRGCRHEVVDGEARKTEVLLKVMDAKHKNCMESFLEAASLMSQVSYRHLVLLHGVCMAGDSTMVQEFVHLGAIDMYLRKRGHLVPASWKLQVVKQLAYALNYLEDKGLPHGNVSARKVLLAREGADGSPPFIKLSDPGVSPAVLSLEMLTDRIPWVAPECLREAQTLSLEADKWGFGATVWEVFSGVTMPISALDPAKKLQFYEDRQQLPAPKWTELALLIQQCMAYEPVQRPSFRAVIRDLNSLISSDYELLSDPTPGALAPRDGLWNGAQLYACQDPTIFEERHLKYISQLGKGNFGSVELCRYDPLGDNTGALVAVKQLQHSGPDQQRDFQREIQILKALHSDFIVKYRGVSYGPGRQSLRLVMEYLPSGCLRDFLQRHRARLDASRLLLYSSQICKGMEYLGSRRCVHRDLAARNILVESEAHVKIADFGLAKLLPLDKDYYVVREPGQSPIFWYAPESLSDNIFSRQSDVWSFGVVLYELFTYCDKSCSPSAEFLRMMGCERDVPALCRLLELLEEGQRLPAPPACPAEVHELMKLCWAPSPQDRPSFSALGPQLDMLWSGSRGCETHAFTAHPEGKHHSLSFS
As to the kind of experiment: Inhibition of a panel of kinases, in vitro HotSpot kinase assay: JAK3. The assay is classed as biochemical. The note with it: 1 μM ATP, read-out: JAK3 (IC50).

A further assay deals with T2, BTK-WT (Homo sapiens, UniProt Q06187).
T2 construct: purified from insect cells as a full-length construct containing an N-terminal 6X-His tag; His6 (N); made in house; host or cells: insect cells (baculovirus Sf21 in Method B)
Briefly: Btk in vitro inhibitory activity (one of Method A TR-FRET, Method B electrophoretic mobility shift, Method C radiometric filter binding). The assay is classed as biochemical. The note with it: read-out: BTK-WT (IC50).

Read-outs that look alike come from different tables or passages of the source.

T2 sequence (Q06187 whole entry): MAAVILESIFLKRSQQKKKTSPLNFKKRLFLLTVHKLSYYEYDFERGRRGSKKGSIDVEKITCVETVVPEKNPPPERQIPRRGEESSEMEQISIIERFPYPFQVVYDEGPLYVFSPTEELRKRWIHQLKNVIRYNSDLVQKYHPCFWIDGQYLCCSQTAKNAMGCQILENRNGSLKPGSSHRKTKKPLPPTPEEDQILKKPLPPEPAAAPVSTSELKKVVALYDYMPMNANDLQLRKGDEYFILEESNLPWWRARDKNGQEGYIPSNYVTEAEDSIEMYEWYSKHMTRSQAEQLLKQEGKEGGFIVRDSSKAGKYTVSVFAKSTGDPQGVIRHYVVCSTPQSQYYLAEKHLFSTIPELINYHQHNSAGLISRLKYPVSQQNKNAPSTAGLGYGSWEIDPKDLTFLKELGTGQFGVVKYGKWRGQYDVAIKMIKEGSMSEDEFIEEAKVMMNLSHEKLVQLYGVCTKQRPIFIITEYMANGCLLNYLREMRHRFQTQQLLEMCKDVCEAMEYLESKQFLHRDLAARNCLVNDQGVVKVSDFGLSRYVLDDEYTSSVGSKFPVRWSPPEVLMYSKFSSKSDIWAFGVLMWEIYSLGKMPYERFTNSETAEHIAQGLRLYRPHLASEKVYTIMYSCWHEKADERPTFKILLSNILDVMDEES

For the compound `CC(C)c1ccc(C(=O)N[C@@H]2CCCN(c3cnc(C(N)=O)c(Nc4ccccc4)n3)C2)cc1` [Example A-65, 3-(phenylamino)-5-[(3R)-3-[4-(propan-2-yl)benzamido]piperidin-1-yl]pyrazine-2-carboxamide], the IC50 on JAK3 (Table 10, Formula A-I) was over 10000 nM; at BTK-WT (Table 10, Formula A-I), 1000 to 10000 nM.

In the case of `Cc1cccc(C(=O)N[C@@H]2CCCN(c3cnc(C(N)=O)c(Nc4ccc(C5CCN(C6CCCC6)CC5)cc4)n3)C2)c1` [Example A-8, 3-{[4-(1-cyclopentylpiperidin-4-yl)phenyl]amino}-5-[(3R)-3-(3-methylbenzamido)piperidin-1-yl]pyrazine-2-carboxamide], the half-maximal inhibitory concentration (IC50) on JAK3 (Table 10, Formula A-I) is 100 to 1000 nM; on BTK-WT (Table 10, Formula A-I) it was at most 100 nM.

Take `Cc1cc(Nc2nc(N3CCC[C@@H](NC(=O)c4ccc(C5CC5)cc4F)[C@H]3C)cnc2C(N)=O)sn1` [Example A-74, 5-[(2R,3R)-3-(4-cyclopropyl-2-fluorobenzamido)-2-methylpiperidin-1-yl]-3-[(3-methyl-1,2-thiazol-5-yl)amino]pyrazine-2-carboxamide]: the half-inhibitory concentration (IC50) on JAK3 (Table 10, Formula A-I) is 1000 to 10000 nM; at BTK-WT (Table 10, Formula A-I), at most 100 nM.

With `Cc1cc(Nc2nc(N3CCC[C@H](NC(=O)c4ccc(N(C)C)cc4)[C@H]3CO)cnc2C(N)=O)sn1` [Example A-70, 5-[(2S,3S)-3-[4-(dimethylamino)benzamido]-2-(hydroxymethyl)piperidin-1-yl]-3-[(3-methyl-1,2-thiazol-5-yl)amino]pyrazine-2-carboxamide], the IC50 on JAK3 (Table 10, Formula A-I) was over 10000 nM; on BTK-WT (Table 10, Formula A-I), 100 to 1000 nM.

As to `Cc1cc(Nc2nc(NC3CCC(NC(=O)c4ccccc4)CC3)cnc2C(N)=O)sn1` (centres unmarked) [Example B-4, 5-[(4-benzamidocyclohexyl)amino]-3-[(3-methyl-1,2-thiazol-5-yl)amino]pyrazine-2-carboxamide], the IC50 was under 100 nM on JAK3 (Table 11, Formula B-I) and at most 100 nM on BTK-WT (Table 11, Formula B-I).

With `Cc1cc(Nc2nc(N3CCCC(CNC(=O)c4ccccc4)C3)cnc2C(N)=O)sn1` (centres unmarked) [Example A-79, 3-[(3-methyl-1,2-thiazol-5-yl)amino]-5-{3-[(phenylformamido)methyl]piperidin-1-yl}pyrazine-2-carboxamide], the half-inhibitory concentration (IC50) on JAK3 (Table 10, Formula A-I) was 1000 to 10000 nM; on BTK-WT (Table 10, Formula A-I), at most 100 nM.

On to `Cc1cc(Nc2nc(N3CCC[C@@H](NC(=O)c4ccc(C5CC5)c(F)c4)C3)cnc2C(N)=O)sn1` [Example A-73, 5-[(3R)-3-(4-cyclopropyl-3-fluorobenzamido)piperidin-1-yl]-3-[(3-methyl-1,2-thiazol-5-yl)amino]pyrazine-2-carboxamide], for which the concentration for half-maximal inhibition (IC50) at JAK3 (Table 10, Formula A-I) was 1000 to 10000 nM; at BTK-WT (Table 10, Formula A-I) it was at most 100 nM.

Turning to `Cc1cc(Nc2nc(N3CCCC(CNC(=O)c4ccc(N(C)C)cc4)C3)cnc2C(N)=O)sn1` (centres unmarked) [Example A-80], the IC50 was 1000 to 10000 nM at JAK3 (Table 10, Formula A-I) and at most 100 nM at BTK-WT (Table 10, Formula A-I).

As to `CC(C)c1ccc(C(=O)N[C@@H]2CCCN(c3cnc(C(N)=O)c(Nc4ccccn4)n3)C2)cc1` [Example A-71, 5-[(3R)-3-[4-(propan-2-yl)benzamido]piperidin-1-yl]-3-[(pyridin-2-yl)amino]pyrazine-2-carboxamide], the half-inhibitory concentration (IC50) on JAK3 (Table 10, Formula A-I) lay within 1000 to 10000 nM; at BTK-WT (Table 10, Formula A-I), 1000 to 10000 nM.

On to `Cc1cc(Nc2nc(N3CCC[C@@H](NC(=O)c4ccc(N(C)C)cc4)[C@H]3CO)cnc2C(N)=O)sn1` (stereo in doubt) [Example A-68, 5-[(2S,3R)-3-[4-(dimethylamino)benzamido]-2-(hydroxymethyl)piperidin-1-yl]-3-[(3-methyl-1,2-thiazol-5-yl)amino]pyrazine-2-carboxamide], for which the half-maximal inhibitory concentration (IC50) on JAK3 (Table 10, Formula A-I) is over 10000 nM; on BTK-WT (Table 10, Formula A-I), 100 to 1000 nM.

With `Cc1cc(Nc2nc(N(C)[C@H]3CCCN(C(=O)c4ccc(N(C)C)cc4)C3)cnc2C(N)=O)sn1` [Example C-9, 5-{[(3S)-1-[4-(dimethylamino)benzoyl]piperidin-3-yl](methyl)amino}-3-[(3-methyl-1,2-thiazol-5-yl)amino]pyrazine-2-carboxamide], the IC50 is over 10000 nM at JAK3 (Table 12, Formula C-I) and 1000 to 10000 nM at BTK-WT (Table 12, Formula C-I).

Turning to `Cc1cc(Nc2cc(N3CCC[C@@H](NC(=O)c4ccc(C(C)C)cc4)C3)cnc2C(N)=O)sn1` [Example A-63, 3-[(3-methyl-1,2-thiazol-5-yl)amino]-5-[(3R)-3-[4-(propan-2-yl)benzamido]piperidin-1-yl]pyridine-2-carboxamide], the IC50 was over 10000 nM on JAK3 (Table 10, Formula A-I) and at most 100 nM on BTK-WT (Table 10, Formula A-I).

Take `Cc1cc(Nc2c(C(N)=O)ncc(N3CCC[C@@H](NC(=O)c4ccc(N(C)C)cc4)C3)c2C)sn1` [Example A-66, 5-[(3R)-3-[4-(dimethylamino)benzamido]piperidin-1-yl]-4-methyl-3-[(3-methyl-1,2-thiazol-5-yl)amino]pyridine-2-carboxamide]: the IC50 on JAK3 (Table 10, Formula A-I) is over 10000 nM; on BTK-WT (Table 10, Formula A-I) it was 1000 to 10000 nM.

For the compound `CN(C)c1ccc(C(=O)N[C@H]2CC[C@H](Nc3cnc(C(N)=O)c(Nc4ccc5ncccc5c4)n3)CC2)cc1` [Example B-2], the half-inhibitory concentration (IC50) was over 10000 nM on JAK3 (Table 11, Formula B-I) and 100 to 1000 nM on BTK-WT (Table 11, Formula B-I).

With `CC(C)c1ccc(C(=O)N[C@@H]2CCCN(c3cnc(C(N)=O)c(Nc4ccc(CN(C)C)cc4)n3)C2)cc1` [Example A-83, 3-({4-[(dimethylamino)methyl]phenyl}amino)-5-[(3R)-3-[4-(propan-2-yl)benzamido]piperidin-1-yl]pyrazine-2-carboxamide], the IC50 on JAK3 (Table 10, Formula A-I) was 1000 to 10000 nM; at BTK-WT (Table 10, Formula A-I) it was at most 100 nM.

In the case of `Cc1cc(Nc2nc(N3CCC[C@H](NC(=O)c4ccc(N(C)C)cc4)[C@@H]3CO)cnc2C(N)=O)sn1` (stereo in doubt) [Example A-67, 5-[(2R,3S)-3-[4-(dimethylamino)benzamido]-2-(hydroxymethyl)piperidin-1-yl]-3-[(3-methyl-1,2-thiazol-5-yl)amino]pyrazine-2-carboxamide], the IC50 on JAK3 (Table 10, Formula A-I) is 100 to 1000 nM; at BTK-WT (Table 10, Formula A-I), at most 100 nM.

For `Cc1cc(Nc2nc(N3CCC[C@@H](N(C)C(=O)c4ccc(C(C)C)cc4)C3)cnc2C(N)=O)sn1` [Example A-40, 3-[(3-methyl-1,2-thiazol-5-yl)amino]-5-[(3R)-3-[N-methyl4-(propan-2-yl)benzamido]piperidin-1-yl]pyrazine-2-carboxamide], the IC50 on JAK3 (Table 10, Formula A-I) was over 10000 nM; on BTK-WT (Table 10, Formula A-I), at most 100 nM.

Consider `CCn1cc2cc(C(=O)N[C@@H]3CCCN(c4cnc(C(N)=O)c(Nc5cc(C)ns5)n4)C3)ccc2n1` [Example A-38, N-[(3R)-1-{5-carbamoyl-6-[(3-methyl-1,2-thiazol-5-yl)amino]pyrazin-2-yl}piperidin-3-yl]-2-ethyl-2H-indazole-5-carboxamide], for which the 50% inhibitory concentration (IC50) on JAK3 (Table 10, Formula A-I) was 1000 to 10000 nM; at BTK-WT (Table 10, Formula A-I), at most 100 nM.

Regarding `CCN1N=CC2C=C(C(=O)N[C@@H]3CCCN(c4cnc(C(N)=O)c(Nc5cc(C)ns5)n4)C3)C=CC21` (stereo partly drawn) [Example A-72, N-[(3R)-1-{5-carbamoyl-6-[(3-methyl-1,2-thiazol-5-yl)amino]pyrazin-2-yl}piperidin-3-yl]-1-ethyl-3a,7a-dihydro-1H-indazole-5-carboxamide], the IC50 on JAK3 (Table 10, Formula A-I) was 1000 to 10000 nM; at BTK-WT (Table 10, Formula A-I), at most 100 nM.

As for `Cc1cc(Nc2nc(N3CCCC(CNC(=O)N(C)C)C3)cnc2C(N)=O)sn1` (centres unmarked) [Example A-78, 5-(3-{[(dimethylcarbamoyl)amino]methyl}piperidin-1-yl)-3-[(3-methyl-1,2-thiazol-5-yl)amino]pyrazine-2-carboxamide], the IC50 on JAK3 (Table 10, Formula A-I) is 1000 to 10000 nM; at BTK-WT (Table 10, Formula A-I), at most 100 nM.

Consider `Cc1cc(Nc2nc(N3CCC[C@@H](NC(=O)c4ccc(C(C)C)cc4)[C@H]3C)cnc2C(N)=O)sn1` [Example A-56, 3-[(3-methyl-1,2-thiazol-5-yl)amino]-5-[(2R,3R)-2-methyl-3-[4-(propan-2-yl)benzamido]piperidin-1-yl]pyrazine-2-carboxamide], for which the IC50 was 1000 to 10000 nM at JAK3 (Table 10, Formula A-I) and at most 100 nM at BTK-WT (Table 10, Formula A-I).

Take `Cc1cc(Nc2nc(NC3CCC(NC(=O)N(C)C)CC3)cnc2C(N)=O)sn1` (centres unmarked) [Example B-3, 5-({4-[(dimethylcarbamoyl)amino]cyclohexyl}amino)-3-[(3-methyl-1,2-thiazol-5-yl)amino]pyrazine-2-carboxamide]: the IC50 was under 100 nM on JAK3 (Table 11, Formula B-I) and at most 100 nM on BTK-WT (Table 11, Formula B-I).
